One series has as its target c-Met (Homo sapiens, UniProt P08581). Kind of series: c-Met inhibition activities (IC50). It counts as biochemical. The following applies: read-out: c-Met inhibitory activity IC50.
The next series has as its system PC3-PIP PSMA (+) cells. Nature of the series: CellTiter-Glo Luminescent Cell Viability assay. It counts as cell-based. The following applies: Homo sapiens; for viability at 1 µg/mL: 1 μg/ml; for viability at 1 µg/mL / viability at 10 µg/mL / viability at 1000 µg/mL / EC50: 72 h; for viability at 1 µg/mL / viability at 10 µg/mL / viability at 1000 µg/mL: read-out: viable cells; for viability at 10 µg/mL: 10 μg/ml; for viability at 1000 µg/mL: 1000 μg/ml; for IC50: 72 H, equivalent drug bases, read-out: IC50 anti-proliferative activity; for EC50: nonlinear regression with variable slope. The protocol:
Cell viability: 2.5×10^4 PC3-PIP PSMA (+) cells were allowed to adhere to a 96 well plate overnight. The following day, cell media was changed and the PD-CTT1298-Cabo conjugate, at the concentrations tested, was added along with cabozantinib (Cabo) and hydoxy-cabozantinib (Cabo-OH). The cells were allowed to incubate at 37°° C. for 72H. Following incubation, the luminescence of the viable cells was measured using the CellTiter-Glo® Luminescent Cell Viability assay according to manufacturer's instructions. Cell viability (%) was calculated using the luminescence values obtained from the controls used in the experiment. The experiment was performed in triplicate.
Cell viability. 2.5×10^4 PC3-PIP PSMA (+) cells were allowed to adhere to a 96 well plate overnight. The following day, cell media was changed and the PSMA-2DG-D-Cabo dendrimer, at the concentrations tested, were added along with Cabozantinib (Cabo) and Cabozantinib-7-hydoxy derivative (Cabo-OH). The cells were allowed to incubate at 37° C. for 72 h. Following incubation, the luminescence of the viable cells was measured using the CellTiter-Glo® Luminescent Cell Viability assay (Promega, G7570) according to manufacturer's instructions. The luminescence data was collected using a plate reader. Cell viability (%) was calculated using the luminescence values obtained from the controls used in the experiment. The blank cells served as a positive (+) control while sterile 10% DMSO (Fisher Scientific, BP231) served as the negative (−) control. The experiment was performed in triplicate. A similar experiment was carried out with 2DG-D dendrimer at different concentrations (0.1, 1, 10, 100 and 1000 μg/ml) following the same protocol. The experiments were performed in triplicate, with proper controls. Statistical analyses were performed using a TWO-WAY ANOVA T-Test with unequal variances.

The next series is described as follows: Aqueous solubility. Format: physicochemical.

≈ marks a conversion by molar mass, not a printed value. Entries after “also recorded” stand apart in the source; their conditions may differ.

Chain of c-Met (P08581 25-1390): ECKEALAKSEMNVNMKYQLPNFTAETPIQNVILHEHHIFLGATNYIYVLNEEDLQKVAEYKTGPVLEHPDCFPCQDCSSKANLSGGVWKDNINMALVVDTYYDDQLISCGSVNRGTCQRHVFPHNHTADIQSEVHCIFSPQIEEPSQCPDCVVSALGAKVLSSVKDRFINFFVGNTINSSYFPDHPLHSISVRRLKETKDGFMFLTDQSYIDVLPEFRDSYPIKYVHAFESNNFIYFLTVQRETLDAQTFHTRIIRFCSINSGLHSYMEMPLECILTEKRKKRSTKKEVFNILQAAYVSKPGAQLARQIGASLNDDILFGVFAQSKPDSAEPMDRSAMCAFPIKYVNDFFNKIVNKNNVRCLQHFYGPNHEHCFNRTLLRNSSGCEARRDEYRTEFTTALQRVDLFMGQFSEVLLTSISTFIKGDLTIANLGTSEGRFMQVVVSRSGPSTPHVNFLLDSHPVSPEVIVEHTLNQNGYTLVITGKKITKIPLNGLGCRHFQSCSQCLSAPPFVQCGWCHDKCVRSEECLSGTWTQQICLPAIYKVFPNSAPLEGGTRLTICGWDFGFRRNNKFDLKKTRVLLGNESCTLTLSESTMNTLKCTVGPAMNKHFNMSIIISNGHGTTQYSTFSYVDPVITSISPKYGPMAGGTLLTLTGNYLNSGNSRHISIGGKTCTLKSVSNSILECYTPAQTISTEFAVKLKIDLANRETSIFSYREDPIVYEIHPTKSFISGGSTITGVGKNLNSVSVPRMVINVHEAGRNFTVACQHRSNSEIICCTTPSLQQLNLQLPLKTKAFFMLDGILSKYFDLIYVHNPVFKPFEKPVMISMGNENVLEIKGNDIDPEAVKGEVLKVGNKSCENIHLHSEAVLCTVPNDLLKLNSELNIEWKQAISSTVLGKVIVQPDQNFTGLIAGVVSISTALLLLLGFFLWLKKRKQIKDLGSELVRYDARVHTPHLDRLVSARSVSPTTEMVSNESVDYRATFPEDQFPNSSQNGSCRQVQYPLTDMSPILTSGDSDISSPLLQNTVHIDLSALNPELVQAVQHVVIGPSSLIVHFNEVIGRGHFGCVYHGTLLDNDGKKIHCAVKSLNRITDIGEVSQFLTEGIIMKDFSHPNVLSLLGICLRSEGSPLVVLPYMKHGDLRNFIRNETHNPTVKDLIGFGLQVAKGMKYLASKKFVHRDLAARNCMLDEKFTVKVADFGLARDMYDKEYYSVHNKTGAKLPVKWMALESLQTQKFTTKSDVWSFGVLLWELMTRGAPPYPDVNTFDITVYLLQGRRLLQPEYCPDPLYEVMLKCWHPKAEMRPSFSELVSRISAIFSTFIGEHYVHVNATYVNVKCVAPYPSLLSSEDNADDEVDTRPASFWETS

On to `COc1cc2c(Oc3ccc(NC(=O)C4(C(=O)Nc5ccc(F)cc5)CC4)cc3)ccnc2cc1O` [Cabo-OH, hydoxy-cabozantinib], for which the IC50 at c-Met amounted to 26.3 nM. Also, in the series with PC3-PIP PSMA (+) cells, the viability at 1 µg/mL worked out at 105 ± 6.38%, the viability at 10 µg/mL is 106 ± 3.09%, the viability at 1000 µg/mL came out at 7.81 ± 0.24% and the IC50 was 77.3 ± 4.35 µg/mL. In addition, the 50% effective concentration (EC50) in the series on PC3-PIP PSMA (+) cells was 69.4 µg/mL (≈ 142 µM). Further, the “water solubility (in words)” value in “Aqueous solubility” was “poor aqueous solubility; also recorded: negligible solubility in water”.
For the compound `COc1cc2nccc(Oc3ccc(NC(=O)C4(C(=O)Nc5ccc(F)cc5)CC4)cc3)c2cc1OC` [Cabo, cabozantinib], in the series on PC3-PIP PSMA (+) cells, the viability at 1 µg/mL worked out at 96.3 ± 4.58%, the viability at 10 µg/mL turned out to be 69.2 ± 0.94%, the viability at 1000 µg/mL amounted to 4.17 ± 0.53% and the IC50 is 24.8 ± 2.27 µg/mL. In addition, in the series on PC3-PIP PSMA (+) cells, the EC50 worked out at 68 µg/mL (≈ 136 µM). For the same compound, the “water solubility (in words)” value in the series “Aqueous solubility” is “poor aqueous solubility; also recorded: negligible solubility in water”.

The values above are taken from patent US20250269044A1, “PSMA-TARGETED DENDRIMER NANOPLATFORM FOR CANCER DETECTION AND THERAPY” (Washington State University, priority 2024, published 2025).
